{
  "source": "patent US9738634B2",
  "about": "“Heterocyclic amide compound and herbicide” (SYNGENTA PARTICIPATIONS AG, priority 2013, dated 2017)",
  "type_in_all_cases": "in vivo",
  "details_in_all_cases": "treatment dosage 320 g/ha",
  "key": {"[1]": {"tested_on": "barnyard grass", "experiment": "Test Example 1: weedkilling efficacy, preemergent weed treatment in the submerged state; A: barnyard grass", "procedure,_shortened": "(§1)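 Pots of alluvial soil flooded 4 cm deep, sown with barnyard grass, bulrush and oval-leafed pondweed and transplanted with 2.5-leaf rice. Emulsified compound applied to the water surface on sowing day at stated g/ha; greenhouse 25–30 °C, effects assessed 3 weeks after treatment.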"}, "[2]": {"tested_on": "transplanted rice", "experiment": "Test Example 1: preemergent weed treatment in the submerged state, effect on crop; a: transplanted rice", "procedure,_shortened": "as §1"}, "[3]": {"tested_on": "Italian ryegrass", "experiment": "Test Example 4: weedkilling efficacy by foliar treatment; I: Italian ryegrass", "procedure,_shortened": "(§2)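 Seeds are spot-sown into sterilized diluvial soil and covered with about 1.5 cm of soil. After 14 days' greenhouse growth at 25 to 30° C, plants are sprayed on stems and leaves with diluted emulsion at the stated g/ha rate, then scored at 3 weeks.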"}, "[4]": {"tested_on": "oval-leafed pondweed", "experiment": "Test Example 1: weedkilling efficacy, preemergent weed treatment in the submerged state; C: oval-leafed pondweed", "procedure,_shortened": "as §1"}, "[5]": {"tested_on": "chickweed", "experiment": "Test Example 3: weedkilling efficacy through soil treatment; N: chickweed", "procedure,_shortened": "(§3)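 Crop and weed responses were judged three weeks after a uniform surface spray of the water-diluted emulsion at the given g/ha rate. Seeds sat beneath about 1.5 cm of sterilized diluvial soil, and boxes stood in a greenhouse at 25 to 30° C.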"}, "[6]": {"tested_on": "bulrush", "experiment": "Test Example 1: weedkilling efficacy, preemergent weed treatment in the submerged state; B: bulrush", "procedure,_shortened": "as §1"}, "[7]": {"tested_on": "bulrush", "experiment": "Test Example 2: weedkilling efficacy, growth period weed treatment in the submerged state; B: bulrush", "procedure,_shortened": "(§4)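 Barnyard grass, bulrush and oval-leafed pondweed sown in alluvial soil under 4 cm flooding, greenhouse 25 to 30° C. At 1-2 leaf stage, water-diluted emulsion applied to the water surface at stated g/ha dosages; effects scored 3 weeks later.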"}, "[8]": {"tested_on": "wheat", "experiment": "Test Example 3: soil treatment, effect on crop; e: wheat", "procedure,_shortened": "as §3"}, "[9]": {"tested_on": "catchweed", "experiment": "Test Example 4: weedkilling efficacy by foliar treatment; O: catchweed", "procedure,_shortened": "as §2"}, "[10]": {"tested_on": "chickweed", "experiment": "Test Example 4: weedkilling efficacy by foliar treatment; N: chickweed", "procedure,_shortened": "as §2"}, "[11]": {"tested_on": "Italian ryegrass", "experiment": "Test Example 3: weedkilling efficacy through soil treatment; I: Italian ryegrass", "procedure,_shortened": "as §3"}, "[12]": {"tested_on": "Indian mallow", "experiment": "Test Example 3: weedkilling efficacy through soil treatment; K: Indian mallow", "procedure,_shortened": "as §3"}, "[13]": {"tested_on": "beet", "experiment": "Test Example 3: soil treatment, effect on crop; f: beet", "procedure,_shortened": "as §3"}, "[14]": {"tested_on": "wheat", "experiment": "Test Example 4: foliar treatment, effect on crop; e: wheat", "procedure,_shortened": "as §2"}, "[15]": {"tested_on": "black-grass", "experiment": "Test Example 4: weedkilling efficacy by foliar treatment; H: black-grass", "procedure,_shortened": "as §2"}, "[16]": {"tested_on": "common wind-grass", "experiment": "Test Example 3: weedkilling efficacy through soil treatment; J: common wind-grass", "procedure,_shortened": "as §3"}, "[17]": {"tested_on": "fig-leafed goosefoot", "experiment": "Test Example 4: weedkilling efficacy by foliar treatment; M: fig-leafed goosefoot", "procedure,_shortened": "as §2"}, "[18]": {"tested_on": "fig-leafed goosefoot", "experiment": "Test Example 3: weedkilling efficacy through soil treatment; M: fig-leafed goosefoot", "procedure,_shortened": "as §3"}, "[19]": {"tested_on": "Indian mallow", "experiment": "Test Example 4: weedkilling efficacy by foliar treatment; K: Indian mallow", "procedure,_shortened": "as §2"}, "[20]": {"tested_on": "soybean", "experiment": "Test Example 3: soil treatment, effect on crop; d: soybean", "procedure,_shortened": "as §3"}, "[21]": {"tested_on": "wild oat", "experiment": "Test Example 4: weedkilling efficacy by foliar treatment; G: wild oat", "procedure,_shortened": "as §2"}, "[22]": {"tested_on": "corn", "experiment": "Test Example 4: foliar treatment, effect on crop; c: corn", "procedure,_shortened": "as §2"}, "[23]": {"tested_on": "corn", "experiment": "Test Example 3: soil treatment, effect on crop; c: corn", "procedure,_shortened": "as §3"}, "[24]": {"tested_on": "black-grass", "experiment": "Test Example 3: weedkilling efficacy through soil treatment; H: black-grass", "procedure,_shortened": "as §3"}, "[25]": {"tested_on": "common wind-grass", "experiment": "Test Example 4: weedkilling efficacy by foliar treatment; J: common wind-grass", "protocol": "Testing of Weedkilling Efficacy by Foliar Treatment\nSterilized diluvial soil was introduced into 21 cm long, 13 cm wide, 7 cm deep plastic boxes, and seeds of crabgrass, green foxtail, barnyard grass, wild oat, black-grass, Italian ryegrass, common wind-grass, Indian mallow, redroot pigweed, fig-leafed goosefoot, chickweed, catchweed, birds-eye speedwell, corn, soybean, rice, wheat, beet and rapeseed were each spot-sown, and covered with about 1.5 cm of soil, then the plants were grown in a greenhouse at 25 to 30° C.\nAfter they had grown for 14 days, emulsions of compounds of the present invention prepared according to compounding example 2 were diluted with water to give the specified dosages, and applied uniformly onto the stem and leaf parts with a small sprayer. 3 weeks after the pesticide treatment the effect on each type of plant was investigated on the basis of the assessment criteria of test example 1.\nA: barnyard grass, B: bulrush, C: oval-leafed pondweed, D: crabgrass, E: green foxtail, F: barnyard grass, G: wild oat, H: black-grass, I: Italian ryegrass, J: common wind-grass, K: Indian mallow, L: redroot pigweed, M: fig-leafed goosefoot, N: chickweed, O: catchweed, p: birds-eye speedwell, a: transplanted rice, b: directly sown rice, c: corn, d: soybean, e: wheat, f: beet, g: rapeseed\nFurther, pesticide dosage (g/ha) indicates the concentration regulated such that treatment was with only the stated number of grams (g), when calculated per hectare (ha)."}, "[26]": {"tested_on": "beet", "experiment": "Test Example 4: foliar treatment, effect on crop; f: beet", "procedure,_shortened": "as §2"}, "[27]": {"tested_on": "redroot pigweed", "experiment": "Test Example 3: weedkilling efficacy through soil treatment; L: redroot pigweed", "procedure,_shortened": "as §3"}, "[28]": {"tested_on": "soybean", "experiment": "Test Example 4: foliar treatment, effect on crop; d: soybean", "procedure,_shortened": "as §2"}, "[29]": {"tested_on": "oval-leafed pondweed", "experiment": "Test Example 2: weedkilling efficacy, growth period weed treatment in the submerged state; C: oval-leafed pondweed", "procedure,_shortened": "as §4"}, "[30]": {"tested_on": "redroot pigweed", "experiment": "Test Example 4: weedkilling efficacy by foliar treatment; L: redroot pigweed", "procedure,_shortened": "as §2"}, "[31]": {"tested_on": "catchweed", "experiment": "Test Example 3: weedkilling efficacy through soil treatment; O: catchweed", "procedure,_shortened": "as §3"}, "[32]": {"tested_on": "barnyard grass", "experiment": "Test Example 2: weedkilling efficacy, growth period weed treatment in the submerged state; A: barnyard grass", "procedure,_shortened": "as §4"}, "[33]": {"tested_on": "birds-eye speedwell", "experiment": "Test Example 4: weedkilling efficacy by foliar treatment; p: birds-eye speedwell", "procedure,_shortened": "as §2"}, "[34]": {"tested_on": "wild oat", "experiment": "Test Example 3: weedkilling efficacy through soil treatment; G: wild oat", "procedure,_shortened": "as §3"}},
  "data": [
    {"smiles": "COC(=O)c1ccnc(NC(=O)C(C)(C)N2COC(C)=C(c3ccccc3)C2=O)c1", "note": "[B-2-61]", "values": [
      {"measurement": "A (barnyard grass) weedkilling efficacy grade", "setting": "[1]", "result": "0 (weed kill ratio 5% or less (practically no effect))"},
      {"measurement": "a (transplanted rice) effect on crop grade", "setting": "[2]", "result": "0 (weed kill ratio 5% or less (practically no effect))"},
      {"measurement": "I (Italian ryegrass) weedkilling efficacy grade", "setting": "[3]", "result": "0 (weed kill ratio 5% or less (practically no effect))"},
      {"measurement": "C (oval-leafed pondweed) weedkilling efficacy grade", "setting": "[4]", "result": "4 (weed kill ratio 70% or more, less than 90%)"},
      {"measurement": "N (chickweed) weedkilling efficacy grade", "setting": "[5]", "result": "0 (weed kill ratio 5% or less (practically no effect))"},
      {"measurement": "B (bulrush) weedkilling efficacy grade", "setting": "[6]", "result": "0 (weed kill ratio 5% or less (practically no effect))"},
      {"measurement": "B (bulrush) weedkilling efficacy grade", "setting": "[7]", "result": "2 (weed kill ratio 20% or more, less than 40%)"},
      {"measurement": "e (wheat) effect on crop grade", "setting": "[8]", "result": "0 (weed kill ratio 5% or less (practically no effect))"},
      {"measurement": "O (catchweed) weedkilling efficacy grade", "setting": "[9]", "result": "0 (weed kill ratio 5% or less (practically no effect))"},
      {"measurement": "N (chickweed) weedkilling efficacy grade", "setting": "[10]", "result": "0 (weed kill ratio 5% or less (practically no effect))"},
      {"measurement": "I (Italian ryegrass) weedkilling efficacy grade", "setting": "[11]", "result": "2 (weed kill ratio 20% or more, less than 40%)"},
      {"measurement": "K (Indian mallow) weedkilling efficacy grade", "setting": "[12]", "result": "0 (weed kill ratio 5% or less (practically no effect))"},
      {"measurement": "f (beet) effect on crop grade", "setting": "[13]", "result": "0 (weed kill ratio 5% or less (practically no effect))"},
      {"measurement": "e (wheat) effect on crop grade", "setting": "[14]", "result": "0 (weed kill ratio 5% or less (practically no effect))"},
      {"measurement": "H (black-grass) weedkilling efficacy grade", "setting": "[15]", "result": "0 (weed kill ratio 5% or less (practically no effect))"},
      {"measurement": "J (common wind-grass) weedkilling efficacy grade", "setting": "[16]", "result": "5 (weed kill ratio 90% or more, (practically complete withering))"},
      {"measurement": "M (fig-leafed goosefoot) weedkilling efficacy grade", "setting": "[17]", "result": "0 (weed kill ratio 5% or less (practically no effect))"},
      {"measurement": "M (fig-leafed goosefoot) weedkilling efficacy grade", "setting": "[18]", "result": "0 (weed kill ratio 5% or less (practically no effect))"},
      {"measurement": "K (Indian mallow) weedkilling efficacy grade", "setting": "[19]", "result": "0 (weed kill ratio 5% or less (practically no effect))"},
      {"measurement": "d (soybean) effect on crop grade", "setting": "[20]", "result": "0 (weed kill ratio 5% or less (practically no effect))"},
      {"measurement": "G (wild oat) weedkilling efficacy grade", "setting": "[21]", "result": "0 (weed kill ratio 5% or less (practically no effect))"},
      {"measurement": "c (corn) effect on crop grade", "setting": "[22]", "result": "0 (weed kill ratio 5% or less (practically no effect))"},
      {"measurement": "c (corn) effect on crop grade", "setting": "[23]", "result": "0 (weed kill ratio 5% or less (practically no effect))"},
      {"measurement": "H (black-grass) weedkilling efficacy grade", "setting": "[24]", "result": "4 (weed kill ratio 70% or more, less than 90%)"},
      {"measurement": "J (common wind-grass) weedkilling efficacy grade", "setting": "[25]", "result": "1 (weed kill ratio 5% or more, less than 20%)"},
      {"measurement": "f (beet) effect on crop grade", "setting": "[26]", "result": "2 (weed kill ratio 20% or more, less than 40%)"},
      {"measurement": "L (redroot pigweed) weedkilling efficacy grade", "setting": "[27]", "result": "0 (weed kill ratio 5% or less (practically no effect))"},
      {"measurement": "d (soybean) effect on crop grade", "setting": "[28]", "result": "0 (weed kill ratio 5% or less (practically no effect))"},
      {"measurement": "C (oval-leafed pondweed) weedkilling efficacy grade", "setting": "[29]", "result": "2 (weed kill ratio 20% or more, less than 40%)"},
      {"measurement": "L (redroot pigweed) weedkilling efficacy grade", "setting": "[30]", "result": "0 (weed kill ratio 5% or less (practically no effect))"},
      {"measurement": "O (catchweed) weedkilling efficacy grade", "setting": "[31]", "result": "0 (weed kill ratio 5% or less (practically no effect))"},
      {"measurement": "A (barnyard grass) weedkilling efficacy grade", "setting": "[32]", "result": "0 (weed kill ratio 5% or less (practically no effect))"},
      {"measurement": "P (birds-eye speedwell) weedkilling efficacy grade", "setting": "[33]", "result": "2 (weed kill ratio 20% or more, less than 40%)"},
      {"measurement": "G (wild oat) weedkilling efficacy grade", "setting": "[34]", "result": "0 (weed kill ratio 5% or less (practically no effect))"}
    ]}
  ]
}
